Measured values reported in PubChem BioAssay AID1996.
≈ marks a conversion by molar mass, not a printed value.

conditions: buffer; pH 7.4; 200.0 µM

Structure (SMILES)	solubility kinetic
N/C(Cc1cccc2ccccc12)=N\O	0.0152 mg/mL (≈ 75.9 µM)
CCn1c(=O)c([N+](=O)[O-])c(N2CCSCC2)c2ccccc21	0.0148 mg/mL (≈ 46.3 µM)
Cc1nc(N2CCOCC2)nc(Oc2ccccc2)c1[N+](=O)[O-]	0.0058 mg/mL (≈ 18.3 µM)
COc1cccc(CNCCc2c[nH]c3ccccc23)c1	0.0358 mg/mL (≈ 128 µM)
COc1ccc(NC(=O)NC2(C(=O)N3CCOCC3)CCCCC2)cc1	0.043 mg/mL (≈ 119 µM)
Cc1c(Cl)cccc1Nc1ncccc1C(=O)O	0.034 mg/mL (≈ 129 µM)
Cc1nn(C)c(C)c1NS(=O)(=O)c1ccccc1Cl	> 0.045 mg/mL
Fc1ccccc1CN1CCCC(NC2CCC2)C1 (stereo not given)	0.0369 mg/mL (≈ 141 µM)
O=c1nc(-c2ccccc2Cl)c2cc(F)ccc2[nH]1	0.0389 mg/mL (≈ 142 µM)
COc1ccc(NC(=O)Nc2ccccc2SC)cc1OC	0.0006 mg/mL (≈ 1.88 µM)
NC(=O)c1cc(-c2ccccc2)nc2ccc(Br)cc12	0.0018 mg/mL (≈ 5.5 µM)
CC(=O)c1ccc(N2C(=O)C3C4C=CC(CC4)C3C2=O)cc1 (stereo not given)	> 0.0443 mg/mL
CCOC(=O)c1cnc2c(C)cccc2c1NCCCN1CCOCC1	> 0.0536 mg/mL
CC(C)N(CCn1cnc2c([nH]c3ccccc32)c1=O)C(C)C	0.0245 mg/mL (≈ 78.4 µM)
Cc1c(C(=O)N2CCCC(C(F)(F)F)C2)oc2ccccc12 (stereo not given)	0.0318 mg/mL (≈ 102 µM)
O=C(O)c1cccnc1C(=O)c1ccccc1	0.0319 mg/mL (≈ 140 µM)
Clc1ccc(-c2cc(-c3ccccn3)on2)c(Cl)c1	< 0.0003 mg/mL
Cc1ccc2nc(SCC(=O)NC3CC3)[nH]c2c1	> 0.0392 mg/mL
Cc1cc(NC(=O)C(C)SCC(=O)N(C)Cc2c(F)cccc2Cl)no1 (stereo not given)	> 0.06 mg/mL
COc1cccc2cc(C(=O)NCCN3CCOCC3)oc12	> 0.0457 mg/mL

Structure (SMILES)	solubility kinetic
O=C(O)c1ccc(Nc2cccc(F)c2)c([N+](=O)[O-])c1	> 0.0414 mg/mL
CN(C)S(=O)(=O)c1ccc(C(=O)OCC(=O)NC(=O)NC2CCCC2)cc1	0.0079 mg/mL (≈ 19.9 µM)
NC(=O)NC(=O)CN1C(=O)NC2(CCOc3ccccc32)C1=O (stereo not given)	> 0.0477 mg/mL
Cc1cc(C)c(C(=O)NCCCN2CCOCC2)c(C)c1	> 0.0436 mg/mL
COc1ccc(OC)c(C(O)C2CCCCN2)c1.Cl (stereo not given)	> 0.0432 mg/mL
O=C(CN1CCOCC1)NNC(=S)Nc1ccccc1	> 0.0442 mg/mL
O=C(O)COCc1nc2ccccc2s1	0.0317 mg/mL (≈ 142 µM)
O=C1C(Cl)=C(N2CCCC2)C(=O)N1c1ccc(F)cc1	0.0074 mg/mL (≈ 25.1 µM)
O=C(CNC(=O)c1ccco1)NCc1nc2ccccc2[nH]1	> 0.0447 mg/mL
CC(C)n1c(SCC(=O)NC2CC2)nnc1C1CC1	> 0.0421 mg/mL
CC(NC(=O)c1ccc(Br)o1)c1ccccc1 (stereo not given)	0.0358 mg/mL (≈ 122 µM)
N#Cc1cccc(NC(=O)CNC(=O)Cc2ccccc2)c1	0.0421 mg/mL (≈ 144 µM)
Cn1c(COc2ccccc2O)[n+](C)c2ccccc21.[Br-]	> 0.0524 mg/mL
COc1ccc(NC(=O)c2oc3ccccc3c2C)cn1	0.004 mg/mL (≈ 14.2 µM)
O=C1C(Cc2ccccc2O)NC(=S)N1c1ccccc1 (stereo not given)	0.0446 mg/mL (≈ 149 µM)
COC(=O)c1cccc(NC(=O)Cc2ccsc2)c1	> 0.0413 mg/mL
CC1CCCN(S(=O)(=O)c2csc(C(N)=O)c2)C1 (stereo not given)	> 0.0433 mg/mL
CCOc1ccc(N2CC(C(=O)NC3CCCC3)CC2=O)cc1 (stereo not given)	> 0.0475 mg/mL
Cc1ccc(S(=O)(=O)Nc2cccc(C(=O)NCC(c3ccc(F)cc3)N3CCOCC3)c2)cc1 (stereo not given)	0.0582 mg/mL (≈ 117 µM)
O=C(c1cccs1)N1CC=C(c2ccccc2)CC1	0.0115 mg/mL (≈ 42.7 µM)

Structure (SMILES)	solubility kinetic
CCCCCCCn1c(=O)c(C(=O)OC)c(N)c2ccccc21	< 0.0003 mg/mL
COc1cc(OC)cc(C(=O)NCCOC23CC4CC(CC(C4)C2)C3)c1	0.0313 mg/mL (≈ 87.1 µM)
O=C(Cc1ccccc1)Nc1ccccc1C(=O)N1CCCCC1	> 0.0484 mg/mL
CCC(=O)c1ccc(OCC(=O)Nc2ccccc2N2CCCCC2)cc1	< 0.0004 mg/mL
CCc1nc2oc3ccc(C)cc3c(=O)c2cc1C(=O)OC	< 0.0006 mg/mL
COC(=O)c1sccc1NC(=O)Nc1ccc(F)cc1F	0.0266 mg/mL (≈ 85.2 µM)
Cc1ccc(C(=O)NCC(=O)NC2CCCC2)cc1	0.0304 mg/mL (≈ 117 µM)
O=C(COc1ccc(Br)cc1)N(CCO)CCO	0.0345 mg/mL (≈ 108 µM)
O=[N+]([O-])c1ccc(Cl)c(S(=O)(=O)n2ccnc2)c1	> 0.0432 mg/mL
CN(CC(=O)O)S(=O)(=O)c1ccc2[nH]c(=O)c(=O)[nH]c2c1	> 0.047 mg/mL
COc1ccc(NC(=O)COc2ccc(/C=N/O)cc2OC)cc1	> 0.0496 mg/mL
CCn1c(C)cc(/C=C2/SC(=O)N(C(C)C(=O)OC)C2=O)c1C (stereo not given)	0.0223 mg/mL (≈ 66.3 µM)
Cc1onc(-c2ccccc2)c1C(=O)NCCSCc1ccco1	> 0.0514 mg/mL
Cc1ccc(C(=O)COC(=O)CN2C(=O)C3C4CCC(C4)C3C2=O)cc1C (stereo not given)	0.0462 mg/mL (≈ 125 µM)
Cc1cc(C)c2nc(NC(=O)c3ccc([N+](=O)[O-])o3)sc2c1	< 0.0002 mg/mL
O=C(COC(=O)COc1ccc(Br)cc1)NCC1CCCO1 (stereo not given)	> 0.0558 mg/mL
CCC(C(=O)NCc1cccnc1)c1ccccc1 (stereo not given)	> 0.0381 mg/mL
O=c1[nH]c(/C=C/c2ccc3c(c2)OCO3)c([N+](=O)[O-])c(=O)[nH]1	0.0194 mg/mL (≈ 64 µM)
CC1=C(C(=O)OC2CCCC(C)C2)C(c2ccccc2)NC(=O)N1 (stereo not given)	0.0043 mg/mL (≈ 13.1 µM)
Cc1ccc(C2C(C#N)=C(N)Oc3cc(N)ccc32)cc1 (stereo not given)	0.0044 mg/mL (≈ 15.9 µM)
